Results: paper PMC10247784, “Physiological activation of human and mouse bitter taste receptors by bile acids” (Communications Biology, 2023)
Where “and” joins values, the source holds several entries; their conditions need not be identical. Equal entries are not always repeated.

Molecular target: T1, human TAS2R4 (Homo sapiens, UniProt Q9NYW5)
T1 construct: expressed in transfected cells; host or cells: HEK293T-Gα16gust44
T1 sequence (Q9NYW5 1-299): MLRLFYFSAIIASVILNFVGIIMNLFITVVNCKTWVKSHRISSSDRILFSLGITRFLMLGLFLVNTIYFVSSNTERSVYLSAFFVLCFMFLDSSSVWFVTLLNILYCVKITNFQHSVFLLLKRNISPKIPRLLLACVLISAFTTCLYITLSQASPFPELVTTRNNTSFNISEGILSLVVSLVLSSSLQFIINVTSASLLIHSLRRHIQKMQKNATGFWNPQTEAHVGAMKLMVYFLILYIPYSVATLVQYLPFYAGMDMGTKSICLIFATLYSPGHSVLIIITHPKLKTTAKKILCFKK
Assay: Calcium imaging assay (FLIPR), HEK293T-Gα16gust44 cells transfected with human TAS2R4
Format: cell-based
Experimental: This set of bile acids was chosen because of their commercial availability in high purities, their diversity within the class of bile acids and their previous detection and quantitation in human blood. Stock solutions were prepared in DMSO.
As basal growth medium for the HEK293T-Gα16gust44 cell line[17],[59] served Dulbecco’s modified eagle medium (DMEM) (Thermo Fisher Scientific, Darmstadt, Germany) supplemented with 10 % fetal bovine serum (Sigma-Aldrich, Steinheim, Germany), 2 mM L-glutamine (Sigma-Aldrich, Steinheim, Germany), 100 units/ml penicillin (Sigma Aldrich, Steinheim, Germany) and 100 µg/ml streptomycin (Sigma Aldrich, Steinheim, Germany). Growth conditions were 37 °C, 5 % CO2 and saturated air-humidity[60].
HEK293T-Gα16gust44 cells were seeded on poly-D-lysine (10 µg/ml) coated 96-well plates to reach a confluence of 40-60 % the next day. For transient transfection 150 ng of plasmid DNA containing the receptor of interest and 0.3 µl lipofectamine 2000 (Thermo Fisher Scientific, Darmstadt, Germany) per well were used and transfection took place according to the manual of lipofectamine 2000. […] The empty vector DNA (mock) was transfected as negative control[14],[41].
Cells were loaded using the calcium-sensitive fluorescent dye Fluo-4-AM (Abcam, Cambridge, Great Britain) in the presence of 2.5 mM probenecid (Sigma-Aldrich, Steinheim, Germany) the day after transfection[13],[41]. 1 h after loading, cells were washed with C1 buffer using a BioTek Cell Washer, incubated in the dark for half an hour and washed again. For automated agonist application and measurement of fluorescence changes, a FLIPR^TETRA device (Molecular Devices, San José, United States) was used. Viability of cells was tested by application of 100 nM Somatostatin 14 (Bachem, Bubendorf, Switzerland)[42].
Measured data were negative control corrected by subtracting the signal of the mock-transfected cells and exported to Microsoft Excel using the FLIPR software ScreenWorks 4.2. In Microsoft Excel software, standardization of maximum fluorescence intensities to the basal fluorescence and normalization to the buffer-only control was done to calculate the relative fluorescence changes (ΔF/F).
Initial screening experiments performed in duplicate wells were confirmed by at least one replication and representative traces were selected for display. All dose-response relationships were determined by three independent experiments (biological replicates) performed in duplicates (technical replicates). Threshold concentrations, defined as lowest substance concentrations leading to statistically significant elevated fluorescence changes in receptor-transfected cells compared with empty vector-transfected cells, were determined using SigmaPlot with Student’s t-test to evaluate statistical significance (p < 0.01).

C[C@H](CCC(=O)O)[C@H]1CC[C@H]2[C@@H]3CC[C@@H]4C[C@H](O)CC[C@]4(C)[C@H]3C[C@H](O)[C@]12C [Deoxycholic Acid, deoxycholic acid]
Efficacy = maximal amplitude (ΔF/F) (TAS2R4, bile acids, mean): 0.08533
Efficacy (maximal amplitude ΔF/F), individual data points (TAS2R4, bile acids, single replicates, listed as DCA): 0.07628 and 0.1105 and 0.06917
RLU, fluorescence trace (Time (s) 0): 0 RLU
RLU, fluorescence trace (Time (s) 2): -24.43 RLU
RLU, fluorescence trace (Time (s) 4): -23.5542 RLU
RLU, fluorescence trace (Time (s) 6): -22.8766 RLU
RLU, fluorescence trace (Time (s) 8): -1.905 RLU
RLU, fluorescence trace (Time (s) 12): -21.8648 RLU
RLU, fluorescence trace (Time (s) 14): -18.1346 RLU
RLU, fluorescence trace (Time (s) 16): -52.8215 RLU
RLU, fluorescence trace (Time (s) 18): -24.2064 RLU
RLU, fluorescence trace (Time (s) 18.766 (TCA, TLCA: 18.782)): -22.8202 RLU
RLU, fluorescence trace (Time (s) 20.781 (TCA, TLCA: 20.782)): -95.6069 RLU
RLU, fluorescence trace (Time (s) 22.781 (TCA, TLCA: 22.782)): -71.6568 RLU
RLU, fluorescence trace (Time (s) 24.781 (TCA, TLCA: 24.782)): -40.8819 RLU
RLU, fluorescence trace (Time (s) 26.781 (TCA, TLCA: 26.782)): -9.811 RLU
RLU, fluorescence trace (Time (s) 28.781 (TCA, TLCA: 28.782)): 38.1772 RLU
RLU, fluorescence trace (Time (s) 30.781 (TCA, TLCA: 30.782)): 89.531 RLU
RLU, fluorescence trace (Time (s) 32.781 (TCA, TLCA: 32.782)): 109 RLU
RLU, fluorescence trace (Time (s) 34.781 (TCA, TLCA: 34.782)): 155.799 RLU
RLU, fluorescence trace (Time (s) 36.781 (TCA, TLCA: 36.782)): 198.766 RLU
RLU, fluorescence trace (Time (s) 38.781 (TCA, TLCA: 38.782)): 215 RLU
RLU, fluorescence trace (Time (s) 40.781 (TCA, TLCA: 40.782)): 245.601 RLU
RLU, fluorescence trace (Time (s) 42.781 (TCA, TLCA: 42.782)): 273.234 RLU
RLU, fluorescence trace (Time (s) 44.781 (TCA, TLCA: 44.782)): 289.793 RLU
RLU, fluorescence trace (Time (s) 46.781 (TCA, TLCA: 46.782)): 293.169 RLU
RLU, fluorescence trace (Time (s) 48.781 (TCA, TLCA: 48.782)): 315.257 RLU
RLU, fluorescence trace (Time (s) 50.781 (TCA, TLCA: 50.782)): 327.06 RLU
RLU, fluorescence trace (Time (s) 52.781 (TCA, TLCA: 52.782)): 336.965 RLU
RLU, fluorescence trace (Time (s) 54.781 (TCA, TLCA: 54.782)): 356.774 RLU
RLU, fluorescence trace (Time (s) 56.781 (TCA, TLCA: 56.782)): 358.021 RLU
RLU, fluorescence trace (Time (s) 58.781 (TCA, TLCA: 58.782)): 377.086 RLU
RLU, fluorescence trace (Time (s) 60.781 (TCA, TLCA: 60.782)): 371.413 RLU
RLU, fluorescence trace (Time (s) 62.781 (TCA, TLCA: 62.782)): 354.175 RLU
RLU, fluorescence trace (Time (s) 64.781 (TCA, TLCA: 64.782)): 367.028 RLU
RLU, fluorescence trace (Time (s) 66.781 (TCA, TLCA: 66.782)): 369.018 RLU
RLU, fluorescence trace (Time (s) 68.781 (TCA, TLCA: 68.782)): 401.767 RLU
RLU, fluorescence trace (Time (s) 70.781 (TCA, TLCA: 70.782)): 369.499 RLU
RLU, fluorescence trace (Time (s) 72.781 (TCA, TLCA: 72.782)): 371.417 RLU
RLU, fluorescence trace (Time (s) 74.781 (TCA, TLCA: 74.782)): 395.575 RLU
RLU, fluorescence trace (Time (s) 76.781 (TCA, TLCA: 76.782)): 372.212 RLU
RLU, fluorescence trace (Time (s) 78.781 (TCA, TLCA: 78.782)): 381.123 RLU
RLU, fluorescence trace (Time (s) 80.781 (TCA, TLCA: 80.782)): 377.573 RLU
RLU, fluorescence trace (Time (s) 82.781 (TCA, TLCA: 82.782)): 366.542 RLU
RLU, fluorescence trace (Time (s) 84.781 (TCA, TLCA: 84.782)): 344.412 RLU
RLU, fluorescence trace (Time (s) 86.781 (TCA, TLCA: 86.782)): 365.264 RLU
RLU, fluorescence trace (Time (s) 88.781 (TCA, TLCA: 88.782)): 345.388 RLU
RLU, fluorescence trace (Time (s) 90.781 (TCA, TLCA: 90.782)): 349.245 RLU
RLU, fluorescence trace (Time (s) 92.781 (TCA, TLCA: 92.782)): 348.005 RLU
RLU, fluorescence trace (Time (s) 94.781 (TCA, TLCA: 94.782)): 360.114 RLU
RLU, fluorescence trace (Time (s) 96.781 (TCA, TLCA: 96.782)): 353.364 RLU
RLU, fluorescence trace (Time (s) 98.781 (TCA, TLCA: 98.782)): 356.212 RLU
RLU, fluorescence trace (Time (s) 100.781 (TCA, TLCA: 100.782)): 338.006 RLU
RLU, fluorescence trace (Time (s) 102.781 (TCA, TLCA: 102.782)): 349.375 RLU
RLU, fluorescence trace (Time (s) 104.781 (TCA, TLCA: 104.782)): 357.725 RLU
RLU, fluorescence trace (Time (s) 106.781 (TCA, TLCA: 106.782)): 339.949 RLU
RLU, fluorescence trace (Time (s) 108.781 (TCA, TLCA: 108.782)): 333.434 RLU
RLU, fluorescence trace (Time (s) 110.781 (TCA, TLCA: 110.782)): 336.947 RLU
RLU, fluorescence trace (Time (s) 112.781 (TCA, TLCA: 112.782)): 335.627 RLU
RLU, fluorescence trace (Time (s) 114.781 (TCA, TLCA: 114.782)): 349.641 RLU
RLU, fluorescence trace (Time (s) 116.781 (TCA, TLCA: 116.782)): 340.242 RLU
RLU, fluorescence trace (Time (s) 118.781 (TCA, TLCA: 118.782)): 328.36 RLU
RLU, fluorescence trace (Time (s) 120.781 (TCA, TLCA: 120.782)): 338.913 RLU
RLU, fluorescence trace (Time (s) 122.781 (TCA, TLCA: 122.782)): 364.894 RLU
RLU, fluorescence trace (Time (s) 124.781 (TCA, TLCA: 124.782)): 333.589 RLU
RLU, fluorescence trace (Time (s) 126.781 (TCA, TLCA: 126.782)): 335.132 RLU
RLU, fluorescence trace (Time (s) 128.781 (TCA, TLCA: 128.782)): 319.908 RLU
RLU, fluorescence trace (Time (s) 130.781 (TCA, TLCA: 130.782)): 356.29 RLU
RLU, fluorescence trace (Time (s) 132.781 (TCA, TLCA: 132.782)): 335.417 RLU
RLU, fluorescence trace (Time (s) 134.781 (TCA, TLCA: 134.782)): 327.442 RLU
RLU, fluorescence trace (Time (s) 136.781 (TCA, TLCA: 136.782)): 323.134 RLU
RLU, fluorescence trace (Time (s) 137.547): 342.47 RLU
RLU, fluorescence trace (Time (s) 143.547): 333.389 RLU
RLU, fluorescence trace (Time (s) 149.547): 328.288 RLU
RLU, fluorescence trace (Time (s) 155.547): 355.055 RLU
RLU, fluorescence trace (Time (s) 161.547): 338.156 RLU
RLU, fluorescence trace (Time (s) 167.547): 335.87 RLU
RLU, fluorescence trace (Time (s) 173.547): 351.387 RLU
RLU, fluorescence trace (Time (s) 179.547): 368.586 RLU
RLU, fluorescence trace (Time (s) 185.547): 363.986 RLU
RLU, fluorescence trace (Time (s) 191.547): 372.236 RLU
RLU, fluorescence trace (Time (s) 197.547): 331.461 RLU
RLU, fluorescence trace (Time (s) 203.547): 345.855 RLU
RLU, fluorescence trace (Time (s) 209.547): 348.008 RLU
RLU, fluorescence trace (Time (s) 215.547): 318.834 RLU
RLU, fluorescence trace (Time (s) 221.547): 327.885 RLU
RLU, fluorescence trace (Time (s) 227.547): 345.298 RLU
RLU, fluorescence trace (Time (s) 233.547): 352.884 RLU
RLU, fluorescence trace (Time (s) 239.547): 389.33 RLU
RLU, fluorescence trace (Time (s) 245.547): 399.649 RLU
RLU, fluorescence trace (Time (s) 293.547): 411.409 RLU
RLU, fluorescence trace (Time (s) 299.547): 406.435 RLU
RLU, fluorescence trace (Time (s) 305.547): 380.1 RLU
RLU, fluorescence trace (Time (s) 311.547): 396.715 RLU
RLU, fluorescence trace (Time (s) 317.547): 351.706 RLU
RLU, fluorescence trace (Time (s) 323.547): 391.589 RLU
RLU, fluorescence trace (Time (s) 329.547): 362.796 RLU
RLU, fluorescence trace (Time (s) 335.547): 360.917 RLU
RLU, fluorescence trace (Time (s) 341.547): 350.479 RLU
RLU, fluorescence trace (Time (s) 347.547): 349.654 RLU
RLU, fluorescence trace (Time (s) 353.547): 326.897 RLU
RLU, fluorescence trace (Time (s) 359.547): 343.746 RLU
Activation threshold concentration TAS2R4 (lowest concentration with significantly increased fluorescence vs empty vector (p < 0.01)): 3 µM
